Reference: patent US9782389B2, “Fungal mycobiome as probiotics, diagnostics and therapeutics” (Cedars-Sinai Medical Center, priority 2012, dated 2017)
Entries after “also recorded” stand apart in the source; their conditions may differ.

What was measured:
DSS colitis = DSS colitis with fluconazole in the drinking water (anti-fungal therapy); assay type: in vivo, mouse; conditions: Clec7a−/− mice; for weight loss during colitis: fluconazole 0.5 mg/ml in drinking water for 14 days starting 2 days prior to DSS, 2.5% DSS 7 days, effect from day 9 (p<0.05)
Protocol: WT and Clec7a−/− mice were cohoused for three weeks prior the experiments. Alternatively, WT and Clec7a−/− littermates were used where indicated. For the induction of colitis, mice were given drinking water supplemented with 2.5% (w/v) Dextran sulphate sodium (DSS, MP Biomedicals, LLC, Aurora, Ohio) for 7 days and sacrificed at day 12. For ablation of intestinal fungi, mice were given Fluconazole (0.5 mg/ml, Sigma) in the drinking water for total of 14 days starting 2 days prior the induction of DSS colitis. In some experiments, prior and upon colitis induction, mice were supplemented every other day with four doses (1×108 yeast/mouse/dose) of Candida tropicalis or Saccharomycopsis fibuligera as shown in FIG. 19. Body weight, gross blood, and stool consistency were analyzed on a daily basis. Paraffin embedded colon tissues were sectioned and stained with H&E for pathology assessment. Assessment of the severity of colitis was measured by the disease activity index (DAI) as previously described.
LI-LP lymphocytes were isolated as previously described with some modifications. Briefly, colons were isolated, opened longitudinally, washed of fecal contents and then cut into 1 cm pieces. Intestinal pieces were transferred into HBSS medium (Sigma), supplemented with 5% fetal bovine serum (FBS) and 2 mM EDTA, and were shaken for 15 min at 37° C. The suspensions were filtered through a mesh and the filtrate containing the mucosa and mucosa associated microflora was used further for DNA isolation. The remaining tissue was washed, cut in small pieces and subsequently incubated in digestion medium consisting of RPMI 1640, 5% FBS, 0.5 mg/ml collagenase type VIII (Sigma), 5 U/ml DNase (Roche Diagnostics), 100 IU/ml penicillin and 100 μg/ml streptomycin for 30 min at 37° C. by gentle shaking. The cell suspensions were filtered through a mesh, and then centrifuged at 1300 rpm. Cell suspensions were cultured overnight and TNF-α production by colonic cells was measured by ELISA (BioLegend, San Diego, Calif.).
Cell suspensions were prepared from MLNs and the LI-LP as described above. Cells were incubated with 50 ng/ml phorbol 12-myristate 13-acetate (PMA; Sigma-Aldrich), 500 ng/ml ionomycin (Sigma-Aldrich) and 10 μg/ml Brefeldin A (BFA; Sigma-Aldrich) in complete RPMI media at 37° C. for 6 h. After surface staining with CD4, cells were permeabilized and intracellular cytokine staining was performed using APC-labeled anti-IFN-γ mAb (XMG1.2; BD Biosciences) and PE-labeled anti-IL-17 mAb (TC11-18H10; BD Biosciences) according to the manufacturer's instructions. Flow cytometry was performed using a LSRII (BD Biosciences) and data were analyzed with FlowJo software (TreeStar Inc.).
For detection of cytokines by ELISA, MLN cells and LI-LP lymphocytes were stimulated with 10 μg/ml plate bound anti-CD3 and anti-CD28 antibodies (BioLegend, San Diego, Calif.). Supernatants were collected after 36 hrs and analyzed for IFN-γ and IL-17 production by ELISA (BioLegend, San Diego, Calif.).
Tissue samples from the proximal and distal colon were isolated and homogenized. RNA was isolated by using RNeasy Mini Kit (Qiagen) and reverse transcribed. Real-time RT-PCR analyses were done on the Applied Biosystems 7500 Fast Real-Time PCR System with the SYBR Green PCR kit as instructed by the manufacturer (Applied Biosystems). […] Samples were analyzed for gene expression using the following primers: […]

intestinal fungi = experiment: Depletion of intestinal fungi by fluconazole, colon sections stained with sDEC-1; assay type: in vivo, mouse; conditions: mice treated with fluconazole 0.5 mg/ml in drinking water for 2 weeks; sDEC-1 staining of colon sections
Protocol: OCT-embedded intestinal specimens were sectioned, mounted on microscope slides and then incubated for 40 min in PBS containing 2% FCS. Murine soluble Dectin-1 (sDec-1) was generated and biotin-labeled as previously described. sDec-1 (10 μg/ml) was fluorescently labeled with streptavidin-Alexa 647 (2 μg/ml, Invitrogen) (sDec-1-Alexa647), and intestinal sections were stained for 1 hr. To block Dectin-1 interaction. sDec-1-Alexa647 was incubated with 1 μg/ml laminarin (soluble β-glucan from Laminaria digitata, Sigma) and intestinal sections were stained as previously described. Alternatively, intestinal sections were stained with FITC conjugated rabbit anti-Candida polyclonal antibody (Meridian Life Science, Cincinnati, Ohio). […] Therefore throughout this study we have referred to the antibody as an “anti-fungal antibody”. Slides were rinsed with PBS and stained for 5 min with 0.1 μg/ml 4′,6-diamidino-2-phenylindole (DAPI, Invitrogen) and overlaid with mounting medium (Vectashield; Vector, Burlingame, Calif.). Slides were examined using a Zeiss Axio Observer Fluorescence microscope. All compared images were collected and processed identically. Colons from Fluconazole (0.5 mg/ml for 2 weeks in the drinking water) treated mice were used in control staining.

[1] = fluconazole in drinking water, DSS colitis

**Q.** For `OC(Cn1cncn1)(Cn1cncn1)c1ccc(F)cc1F` [fluconazole], which “weight loss during colitis” value (DSS colitis) is on record?
**A.** Its value is “reduced weight loss”.

**Q.** What about the “weight loss during colitis” value (DSS colitis; listed as Fluconazole) of the same compound?
**A.** The value was “significantly abrogated weight loss”.

**Q.** What about the colitis overall (DSS colitis; fluconazole in drinking water for 14 days starting 2 days prior to DSS) of the same compound?
**A.** The colitis overall was “ameliorates colitis”.

**Q.** What about the “histological disease characteristics (histology score)” value (DSS colitis; fluconazole in drinking water, 4 days after the 7 days of DSS) of the same compound?
**A.** The value was “milder histological disease characteristics”.

**Q.** And the “Th1 and Th17 responses (IL-17 and IFN-γ producing CD4+ T cells in LI-LP, production in MLNs)” value (DSS colitis; [1])?
**A.** The value was “decreased Th1 and Th17 responses”.

**Q.** And the “production of inflammatory cytokines in the colon” value (DSS colitis; [1])?
**A.** Its value is “decreased production of inflammatory cytokines”.

**Q.** And the “presence of fungi in the intestine” value (intestinal fungi)?
**A.** The value was “substantially reduces the presence of fungi; also recorded: suppressed fungal growth”.
